Results taken from patent US11236047B2 (ASTEX THERAPEUTICS LIMITED, priority 2017, dated 2022).

Tested on: SN40R2 cells
Test: Protocol B: SN40R2 CellTiter-Glo luminescent cell viability assay
Conditions: read-out: SN40R2 % inhibition at 10

**Q.** For `CC[C@@](O)(c1cc(F)c2c(c1)C(=O)N(Cc1ncc(Cl)cn1)[C@@]2(OC)c1ccc(Cl)cc1)C1CCN(CCO)CC1` (single isomer, unassigned) [Example 550], which inhibition at 10 µM is on record?
**A.** 33%

**Q.** Which inhibition at 10 µM does the source give for `CCC(O)(c1cc(F)c2c(c1)C(=O)N(Cc1ccc(C#N)cn1)[C@@]2(O[C@H]1C[C@@H](O)C1)c1ccc(Cl)cc1)c1cnn(C)c1` (stereo partly drawn) [Example 339, 6-{[(1R)-1-(4-chlorophenyl)-7-fluoro-5-[1-hydroxy-1-(1-methyl-1H-pyrazol-4-yl)propyl]-3-oxo-1-[cis-3-hydroxycyclobutoxy]-2,3-dihydro-1H-isoindol-2-yl]methyl}pyridine-3-carbonitrile] here?
**A.** 3%

**Q.** How did the inhibition at 10 µM turn out when `CCC(O)(c1cc(F)c2c(c1)C(=O)N(Cc1ccc(C#N)cn1)[C@@]2(OCCO)c1ccc(Cl)cc1)c1cn(C)cn1` (stereo partly drawn) [Example 364, 6-{[(1R)-1-(4-chlorophenyl)-7-fluoro-5-[1-hydroxy-1-(1-methyl-1H-imidazol-4-yl)propyl]-1-(2-hydroxyethoxy)-3-oxo-2,3-dihydro-1H-isoindol-2-yl]methyl}pyridine-3-carbonitrile] was run?
**A.** 9%

**Q.** Which inhibition at 10 µM does the source give for `CCC(O)(c1cc(F)c2c(c1)C(=O)N(Cc1ccc(C#N)cn1)[C@@]2(O[C@H]1CCOC1)c1ccc(Cl)cc1)c1ccn(C)c(=O)c1` (stereo partly drawn) [Example 374, 6-{[(1R)-1-(4-chlorophenyl)-7-fluoro-5-[1-hydroxy-1-(1-methyl-2-oxo-1,2-dihydropyridin-4-yl)propyl]-3-oxo-1-[(3S)-oxolan-3-yloxy]-2,3-dihydro-1H-isoindol-2-yl]methyl}pyridine-3-carbonitrile] here?
**A.** 2%

**Q.** Which inhibition at 10 µM does the source give for `CC(O)(c1cc(F)c2c(c1)C(=O)N(Cc1ccc(C#N)cn1)[C@@]2(O[C@H]1CCOC1)c1ccc(Cl)cc1)C1(F)CCOCC1` (stereo partly drawn) [Example 388, 6-{[(1R)-1-(4-chlorophenyl)-7-fluoro-5-[1-(4-fluorooxan-4-yl)-1-hydroxyethyl]-3-oxo-1-[(3S)-oxolan-3-yloxy]-2,3-dihydro-1H-isoindol-2-yl]methyl}pyridine-3-carbonitrile] here?
**A.** 4%

**Q.** `O=C1c2cc(C(O)C3CCS(=O)(=O)CC3)cc(F)c2[C@](OCC2(O)CC2)(c2ccc(Cl)cc2)N1Cc1ncc(Cl)cn1` (stereo partly drawn) [Example 399, 4-{[(1R)-1-(4-chlorophenyl)-2-[(5-chloropyrimidin-2-yl)methyl]-7-fluoro-1-[(1-hydroxycyclopropyl)methoxy]-3-oxo-2,3-dihydro-1H-isoindol-5-yl](hydroxy)methyl}-1λ6-thiane-1,1-dione] was tested. Which inhibition at 10 µM did it give?
**A.** 2%

**Q.** With `CCC(O)(c1cc(F)c2c(c1)C(=O)N(Cc1ccc(C#N)cn1)[C@@]2(O[C@@H]1CCOC1)c1ccc(Cl)cc1)c1cn(C)cn1` (stereo partly drawn) [Example 426, 6-{[(1R)-1-(4-chlorophenyl)-7-fluoro-5-[1-hydroxy-1-(1-methyl-1H-imidazol-4-yl)propyl]-3-oxo-1-[(3R)-oxolan-3-yloxy]-2,3-dihydro-1H-isoindol-2-yl]methyl}pyridine-3-carbonitrile] as the compound, how does the inhibition at 10 µM read?
**A.** 4%

**Q.** Which inhibition at 10 µM does the source give for `Cn1cnc(C(O)(c2cc(F)c3c(c2)C(=O)N(Cc2ccc(C#N)cn2)[C@@]3(O[C@H]2CCOC2)c2ccc(Cl)cc2)C2CC2)c1` (stereo partly drawn) [Example 434, 6-{[(1R)-1-(4-chlorophenyl)-5-[cyclopropyl(hydroxy)(1-methyl-1H-imidazol-4-yl)methyl]-7-fluoro-3-oxo-1-[(3S)-oxolan-3-yloxy]-2,3-dihydro-1H-isoindol-2-yl]methyl}pyridine-3-carbonitrile] here?
**A.** 7%

**Q.** For `CCC(O)(c1cc(F)c2c(c1)C(=O)N(Cc1ccc(C#N)cn1)[C@@]2(O[C@H]1CCOC1)c1ccc(Cl)cc1)C1(F)CCOCC1` (stereo partly drawn) [Example 445, 6-{[(1R)-1-(4-chlorophenyl)-7-fluoro-5-[1-(4-fluorooxan-4-yl)-1-hydroxypropyl]-3-oxo-1-[(3S)-oxolan-3-yloxy]-2,3-dihydro-1H-isoindol-2-yl]methyl}pyridine-3-carbonitrile], which inhibition at 10 µM is on record?
**A.** 16%

**Q.** `CCC(O)(c1cc(F)c2c(c1)C(=O)N(Cc1ncc(Cl)cn1)[C@@]2(OC)c1ccc(Cl)cc1)C1CCNCC1` (stereo partly drawn) [Example 450, (3R)-3-(4-chlorophenyl)-2-[(5-chloropyrimidin-2-yl)methyl]-4-fluoro-6-[1-hydroxy-1-(piperidin-4-yl)propyl]-3-methoxy-2,3-dihydro-1H-isoindol-1-one] was tested. Which inhibition at 10 µM did it give?
**A.** 15%

**Q.** For `CCC(O)(c1cc(F)c2c(c1)C(=O)N(Cc1ncc(C#N)cn1)[C@@]2(OC1CCC(O)C1)c1ccc(Cl)cc1)c1cn(C)cn1` (stereo partly drawn) [Example 461, 2-{[(1R)-1-(4-chlorophenyl)-7-fluoro-5-[1-hydroxy-1-(1-methyl-1H-imidazol-4-yl)propyl]-1-[(trans-3-hydroxycyclopentyl)oxy]-3-oxo-2,3-dihydro-1H-isoindol-2-yl]methyl}pyrimidine-5-carbonitrile], which inhibition at 10 µM is on record?
**A.** 6%

**Q.** For `C=C(CO)CO[C@]1(c2ccc(Cl)cc2)c2c(F)cc(C(O)(CC)c3cn(C)cn3)cc2C(=O)N1Cc1ccc(C#N)cn1` (stereo partly drawn) [Example 466, 6-{[(1R)-1-(4-chlorophenyl)-7-fluoro-5-[1-hydroxy-1-(1-methyl-1H-imidazol-4-yl)propyl]-1-(3-hydroxy-2-methylidenepropoxy)-3-oxo-2,3-dihydro-1H-isoindol-2-yl]methyl}pyridine-3-carbonitrile], which inhibition at 10 µM is on record?
**A.** 4%

**Q.** For `CC(O)(c1cc(F)c2c(c1)C(=O)N(Cc1ncc(Cl)cn1)[C@@]2(O[C@H]1CCOC1)c1ccc(Cl)cc1)C1(F)CCOCC1` (stereo partly drawn) [Example 493, (3R)-3-(4-chlorophenyl)-2-[(5-chloropyrimidin-2-yl)methyl]-4-fluoro-6-[1-(4-fluorooxan-4-yl)-1-hydroxyethyl]-3-[(3S)-oxolan-3-yloxy]-2,3-dihydro-1H-isoindol-1-one], which inhibition at 10 µM is on record?
**A.** 11%

**Q.** How did the inhibition at 10 µM turn out when `CC[C@](O)(c1cc(F)c2c(c1)C(=O)N(Cc1ncc(Cl)cn1)[C@@]2(OCCO)c1ccc(Cl)cc1)C1(F)CCOCC1` [Example 502, (3R)-3-(4-chlorophenyl)-2-[(5-chloropyrimidin-2-yl)methyl]-4-fluoro-6-[(1S)-1-(4-fluorooxan-4-yl)-1-hydroxypropyl]-3-(2-hydroxyethoxy)-2,3-dihydro-1H-isoindol-1-one] was run?
**A.** 11%

**Q.** `CC[C@@](O)(c1cc(F)c2c(c1)C(=O)N(Cc1ccc(C)nc1C(=O)O)[C@@]2(OC)c1ccc(Cl)cc1)C1(F)CCOCC1` [Example 515, 3-{[(1R)-1-(4-chlorophenyl)-7-fluoro-5-[(1R)-1-(4-fluorooxan-4-yl)-1-hydroxypropyl]-1-methoxy-3-oxo-2,3-dihydro-1H-isoindol-2-yl]methyl}-6-methylpyridine-2-carboxylic acid] was tested. Which inhibition at 10 µM did it give?
**A.** 8%

**Q.** With `[2H]C([2H])(c1ncc(Cl)cn1)N1C(=O)c2cc(C(C)(O)C3(F)CCOCC3)cc(F)c2[C@]1(O[C@H]1CCOC1)c1ccc(Cl)cc1` (stereo partly drawn) [Example 516, (3R)-3-(4-chlorophenyl)-2-[(5-chloropyrimidin-2-yl)dideuteromethyl]-4-fluoro-6-[1-(4-fluorooxan-4-yl)-1-hydroxyethyl]-3-[(3S)-oxolan-3-yloxy]-2,3-dihydro-1H-isoindol-1-one] as the compound, how does the inhibition at 10 µM read?
**A.** 4%

**Q.** How did the inhibition at 10 µM turn out when `CCC(O)(CN(C)C)c1cc(F)c2c(c1)C(=O)N(Cc1ncc(Cl)cn1)[C@@]2(O[C@H]1CCOC1)c1ccc(Cl)cc1` (stereo partly drawn) [Example 528, (3R)-3-(4-chlorophenyl)-2-[(5-chloropyrimidin-2-yl)methyl]-6-[1-(dimethylamino)-2-hydroxybutan-2-yl]-4-fluoro-3-[(3S)-oxolan-3-yloxy]-2,3-dihydro-1H-isoindol-1-one] was run?
**A.** 10%

**Q.** Which inhibition at 10 µM does the source give for `CC[C@@](O)(c1cc(F)c2c(c1)C(=O)N(Cc1ncc(Cl)cn1)[C@@]2(OC)c1ccc(Cl)cc1)C1CCN(C)CC1` [Example 553, (3R)-3-(4-chlorophenyl)-2-[(5-chloropyrimidin-2-yl)methyl]-4-fluoro-6-[(1S)-1-hydroxy-1-(1-methylpiperidin-4-yl)propyl]-3-methoxy-2,3-dihydro-1H-isoindol-1-one] here?
**A.** 24%

**Q.** Which inhibition at 10 µM does the source give for `CC[C@@](O)(c1cc(F)c2c(c1)C(=O)N(Cc1ncc(Cl)cn1)[C@@]2(OCCO)c1ccc(Cl)cc1)C1CCN(C)CC1` [Example 559, (3R)-3-(4-chlorophenyl)-2-[(5-chloropyrimidin-2-yl)methyl]-4-fluoro-6-[(1S)-1-hydroxy-1-(1-methylpiperidin-4-yl)propyl]-3-(2-hydroxyethoxy)-2,3-dihydro-1H-isoindol-1-one] here?
**A.** 1%

Same assay, conditions: read-out: SN40R2 % inhibition at 10, Protocol B, SN40R2, at 10 μM

**Q.** How did the inhibition at 10 µM turn out when `CCC(O)(c1cc(F)c2c(c1)C(=O)N(Cc1ncc(Cl)cn1)[C@@]2(OC[C@@H](C)O)c1ccc(Cl)cc1)C1(F)CCN(C)CC1` (single isomer, unassigned) [Example 572] was run?
**A.** 23%

Same assay, conditions: read-out: SN40R2 % inhibition at 30

**Q.** For `Cn1cnc(C(O)(c2cc(F)c3c(c2)C(=O)N(Cc2ccc(C#N)cn2)[C@@]3(O[C@H]2CCOC2)c2ccc(Cl)cc2)C2CC2)c1` (stereo partly drawn) [Example 433, 6-{[(1R)-1-(4-chlorophenyl)-5-[cyclopropyl(hydroxy)(1-methyl-1H-imidazol-4-yl)methyl]-7-fluoro-3-oxo-1-[(3S)-oxolan-3-yloxy]-2,3-dihydro-1H-isoindol-2-yl]methyl}pyridine-3-carbonitrile], which inhibition at 30 µM is on record?
**A.** 20%

Same assay, conditions: read-out: SN40R2 IC50 (μM) (Protocol B)

**Q.** How did the IC50 turn out when `CO[C@]1(c2ccc(Cl)cc2)c2ccc(C(C)(O)CN3CCN(C)CC3)cc2C(=O)N1Cc1ccc(Cl)cn1` (stereo partly drawn) [Example 255, (3R)-3-(4-chlorophenyl)-2-[(5-chloropyridin-2-yl)methyl]-6-[2-hydroxy-1-(4-methylpiperazin-1-yl)propan-2-yl]-3-methoxy-2,3-dihydro-1H-isoindol-1-one] was run?
**A.** 7.1 µM

**Q.** Which IC50 does the source give for `CO[C@]1(c2ccc(Cl)cc2)c2c(F)cc(C(C)(O)C3CCN(C)CC3)cc2C(=O)N1Cc1ccc(Cl)cn1` (stereo partly drawn) [Example 304, (3R)-3-(4-chlorophenyl)-2-[(5-chloropyridin-2-yl)methyl]-4-fluoro-6-[1-hydroxy-1-(1-methylpiperidin-4-yl)ethyl]-3-methoxy-2,3-dihydro-1H-isoindol-1-one] here?
**A.** 9 µM

**Q.** `COc1nc(C)ccc1CN1C(=O)c2cc(C(C)(C)O)cc(F)c2[C@]1(OC)c1ccc(Cl)cc1` [Example 315, (3R)-3-(4-chlorophenyl)-4-fluoro-6-(2-hydroxypropan-2-yl)-3-methoxy-2-[(2-methoxy-6-methylpyridin-3-yl)methyl]-2,3-dihydro-1H-isoindol-1-one] was tested. Which IC50 did it give?
**A.** 13 µM
